Measurements from US4051237A, “Glycopeptide antibiotics Bu-2231 A and B and process for producing same” (priority 1975, dated 1977).
Converted amounts (≈) assume the structure as drawn. Like-named read-outs stand apart in the source and are kept apart here.

How the values were obtained:
S. cerevisiae ATCC 9763 = experiment: MIC by two-fold agar dilution; assay type: cell-based; settings: Sc-1 S. cerevisiae ATCC 9763; sabouraud agar; unit assumed
Verticillium sp. = experiment: MIC by two-fold agar dilution; assay type: cell-based; settings: Vx-1 Verticillium sp.; sabouraud agar; unit assumed
P. aeruginosa A 9923 = experiment: MIC by two-fold agar dilution; assay type: cell-based; settings: Mueller-Hinton agar, unit assumed
Mycobacterium 607, D47 = experiment: MIC by two-fold agar dilution; assay type: cell-based; settings: Medium #1001, unit assumed
P morganii A9553 = experiment: MIC by two-fold agar dilution; assay type: cell-based; settings: Mueller-Hinton agar, unit assumed
S. marcescens A20460 = experiment: MIC by two-fold agar dilution; assay type: cell-based; settings: Mueller-Hinton agar, unit assumed
E. cloacae A21006 = experiment: MIC by two-fold agar dilution; assay type: cell-based; settings: Mueller-Hinton agar, unit assumed
P. vulgaris A9436 = experiment: MIC by two-fold agar dilution; assay type: cell-based; settings: Mueller-Hinton agar, unit assumed
S. aureus Smith = experiment: In vivo activity in experimental mice infection; settings: Table 11
Description: The in vivo activity of Bu-2231 complex was evaluated in experimental mice infections against S. aureus Smith and E. coli NIHJ. Bleomycin was tested comparatively as a reference antibiotic.

E. coli A20665 = experiment: MIC by two-fold agar dilution; assay type: cell-based; settings: Mueller-Hinton agar, unit assumed
Lewis Lung carcinoma = settings: Exp. #55; for Survivors Day 5: toxicity evaluation
[1] = test system: Walker 256 carcinosarcoma in ascitic form; settings: for Average Weight Change: recorded Day 5; for Survivors Day 44: survivors considered cured; for Survivors Day 5: toxicity evaluation;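 as to all read-outs here: female SD rats bearing intraperitoneally implanted ascites tumor cells, treated ip once a day for 8 days beginning on Day 1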
P. stuartii A20734 = experiment: MIC by two-fold agar dilution; assay type: cell-based; settings: Mueller-Hinton agar, unit assumed
E. coli A20732 = experiment: MIC by two-fold agar dilution; assay type: cell-based; settings: Mueller-Hinton agar, unit assumed
B. anthracis 115 = assay type: cell-based; settings: Mueller-Hinton agar, unit assumed
A. fumigatus IAM 2530 = experiment: MIC by two-fold agar dilution; assay type: cell-based; settings: Af-1 A. fumigatus IAM 2530; sabouraud agar; unit assumed
S. marcescens A20019 = experiment: MIC by two-fold agar dilution; assay type: cell-based; settings: Mueller-Hinton agar, unit assumed
C. neoformans IAM 4514 = experiment: MIC by two-fold agar dilution; assay type: cell-based; settings: Cn-2 C. neoformans IAM 4514; sabouraud agar; unit assumed
S. aureus 209P = experiment: MIC by two-fold agar dilution; assay type: cell-based; settings: Mueller-Hinton agar, unit assumed
C. neoformans (Cn-1) = experiment: MIC by two-fold agar dilution; assay type: cell-based; settings: Cn-1 C. neoformans; sabouraud agar; unit assumed
K. pneumoniae A20680 = experiment: MIC by two-fold agar dilution; assay type: cell-based; settings: Mueller-Hinton agar, unit assumed
A. niger var Tieghem = experiment: MIC by two-fold agar dilution; assay type: cell-based; settings: An-1 A. niger var Tieghem; sabouraud agar; unit assumed
Sporotrichum sp. = experiment: MIC by two-fold agar dilution; assay type: cell-based; settings: Sy-1 Sporotrichum sp.; sabouraud agar; unit assumed
[2] = test system: C. tropicalis #125 A15051; experiment: MIC by two-fold agar dilution; assay type: cell-based; settings: Ct-4 C. tropicalis #125 A15051; sabouraud agar; unit assumed
E. coli Juhl A15119 = experiment: MIC by two-fold agar dilution; assay type: cell-based; settings: Mueller-Hinton agar, unit assumed
S. lutea PCI-1001 = experiment: MIC by two-fold agar dilution; assay type: cell-based; settings: Mueller-Hinton agar, unit assumed
P. rettgeri A15167 = experiment: MIC by two-fold agar dilution; assay type: cell-based; settings: Mueller-Hinton agar, unit assumed
E. coli K-12 A9632 = experiment: MIC by two-fold agar dilution; assay type: cell-based; settings: Mueller-Hinton agar, unit assumed
S. cerevisiae IAM 4009 = experiment: MIC by two-fold agar dilution; assay type: cell-based; settings: Sc-2 S. cerevisiae IAM 4009; sabouraud agar; unit assumed
T. asteroides = experiment: MIC by two-fold agar dilution; assay type: cell-based; settings: Ta-1 T. asteroides; sabouraud agar; unit assumed
E. coli A20683 = experiment: MIC by two-fold agar dilution; assay type: cell-based; settings: Mueller-Hinton agar, unit assumed
C. krusei #96 A15052 = experiment: MIC by two-fold agar dilution; assay type: cell-based; settings: Ck-2 C. krusei #96 A15052; sabouraud agar; unit assumed
[3] = mice, single subcutaneous injection, 16 days
Description: The acute toxicity of copper-free Bu-2231 A and B was determined in mice by a single subcutaneous injection. Groups of 3 mice were used for each dose level and the body weight was recorded for 16 days.

[4] = 1 mg/kg/day ip once daily for 9 days
[5] = 2 mg/kg/day ip once daily for 9 days
[6] = 4 mg/kg/day ip once daily for 9 days
[7] = 8 mg/kg/day ip once daily for 9 days
[8] = Exp. #5439, 160 mcg/kg/day ip once daily for 8 days
[9] = Exp. #5439, 640 mcg/kg/day ip once daily for 8 days
[10] = Exp. #5439, 2560 mcg/kg/day ip once daily for 8 days

For Bleomycin [reference compound], the MIC (S. cerevisiae ATCC 9763) was 0.8 µg/mL, the MIC (Verticillium sp.) was 6.3 µg/mL and the MIC (P. aeruginosa A 9923) was over 100 µg/mL. It also gave an MIC (Mycobacterium 607, D47) of 0.4 µg/mL, an MIC (P morganii A9553) of over 100 µg/mL and an MIC (S. marcescens A20460) of over 100 µg/mL. For the same compound, the MIC (E. cloacae A21006) was over 100 µg/mL, the MIC (P. vulgaris A9436) was 6.3 µg/mL and the “PD50 (median protective dose)” value (S. aureus Smith; S. aureus Smith infection, mice, sc) was 2.5 mg/kg. The “In vivo activity vs. S. aureus Smith infection (x/5 mice)” value (S. aureus Smith; dose (sc) 0.13 mg/kg) was 0/5, the “In vivo activity vs. S. aureus Smith infection (x/5 mice)” value (S. aureus Smith; dose (sc) 0.5 mg/kg) was 1/5 and the “In vivo activity vs. S. aureus Smith infection (x/5 mice)” value (S. aureus Smith; dose (sc) 2 mg/kg) was 2/5. The “In vivo activity vs. S. aureus Smith infection (x/5 mice)” value (S. aureus Smith; dose (sc) 8 mg/kg) was 4/5, the MIC (E. coli A20665) was 0.2 µg/mL and the “Effect MST %T/C” value (Lewis Lung carcinoma; [4]) was 109%. For the same compound, the “MST Days” value (Lewis Lung carcinoma; [4]) was 24.0 days, the “Survivors Day 5” value (Lewis Lung carcinoma; 1 mg/kg/day) was 6/6 and the “Effect MST %T/C” value (Lewis Lung carcinoma; [5]) was 109%. For the same compound, the “MST Days” value (Lewis Lung carcinoma; [5]) was 24.0 days, the “Survivors Day 5” value (Lewis Lung carcinoma; 2 mg/kg/day) was 6/6 and the “Effect MST %T/C” value (Lewis Lung carcinoma; [6]) was 57%. The “MST Days” value (Lewis Lung carcinoma; [6]) was 12.5 days, the “Survivors Day 5” value (Lewis Lung carcinoma; 4 mg/kg/day) was 6/6 and the “Effect MST %T/C” value (Lewis Lung carcinoma; [7]) was 48%. For the same compound, the “MST Days” value (Lewis Lung carcinoma; [7]) was 10.5 days, the “Survivors Day 5” value (Lewis Lung carcinoma; 8 mg/kg/day) was 6/6 and the “Effect MST %T/C” value [1, 8] was 111%. For the same compound, the “MST Days” value [1, 8] was 10.0 days, the “Average Weight Change” value ([1]; Exp. #5439, 160 mcg/kg/day) was “+11 g” and the “Survivors Day 44” value ([1]; Exp. #5439, 160 mcg/kg/day) was 0/6. For the same compound, the “Survivors Day 5” value ([1]; Exp. #5439, 160 mcg/kg/day) was 6/6, the “Effect MST %T/C” value [1, 9] was 194% and the “MST Days” value [1, 9] was 17.5 days. For the same compound, the “Survivors Day 44” value ([1]; Exp. #5439, 640 mcg/kg/day) was 1/6, the “Survivors Day 5” value ([1]; Exp. #5439, 640 mcg/kg/day) was 6/6 and the “Effect MST %T/C” value [1, 10] was over 489%. For the same compound, the “MST Days” value [1, 10] was over 44.0 days, the “Average Weight Change” value ([1]; Exp. #5439, 2560 mcg/kg/day) was “+10 g” and the “Survivors Day 44” value ([1]; Exp. #5439, 2560 mcg/kg/day) was 4/6. For the same compound, the “Survivors Day 5” value ([1]; Exp. #5439, 2560 mcg/kg/day) was 6/6, the “Effect MST %T/C” value ([1]; Exp. #5501, 160 mcg/kg/day ip once daily for 8 days) was 157% and the “MST Days” value ([1]; Exp. #5501, 160 mcg/kg/day ip once daily for 8 days, Bu-2231 A and B as copper-free formate salts) was 11.0 days. The “Survivors Day 5” value ([1]; Exp. #5501, 160 mcg/kg/day) was 6/6, the “Effect MST %T/C” value ([1]; Exp. #5501, 640 mcg/kg/day ip once daily for 8 days) was 179% and the “MST Days” value ([1]; Exp. #5501, 640 mcg/kg/day ip once daily for 8 days, Bu-2231 A and B as copper-free formate salts) was 12.5 days. For the same compound, the “Survivors Day 5” value ([1]; Exp. #5501, 640 mcg/kg/day) was 6/6, the “minimum effective dose (MED)” value ([1]; Table I, Walker 256 ascitic tumor) was 0.64 mg/kg and the MIC (P. stuartii A20734) was over 100 µg/mL. For the same compound, the MIC (E. coli A20732) was 1.6 µg/mL, the MIC (B. anthracis 115) was 12.5 µg/mL and the MIC (A. fumigatus IAM 2530) was 0.8 µg/mL. For the same compound, the MIC (S. marcescens A20019) was over 100 µg/mL, the MIC (C. neoformans IAM 4514) was 1.6 µg/mL and the MIC (S. aureus 209P) was 6.3 µg/mL. The MIC (C. neoformans (Cn-1)) was 1.6 µg/mL, the MIC (K. pneumoniae A20680) was over 100 µg/mL and the MIC (A. niger var Tieghem) was 0.4 µg/mL. The MIC (Sporotrichum sp.) was over 100 µg/mL, the MIC [2] was over 100 µg/mL and the MIC (E. coli Juhl A15119) was 1.6 µg/mL. It also gave an MIC (S. lutea PCI-1001) of 100 µg/mL, an MIC (P. rettgeri A15167) of over 100 µg/mL and an MIC (E. coli K-12 A9632) of 0.8 µg/mL. It also gave an MIC (S. cerevisiae IAM 4009) of 0.4 µg/mL, an MIC (T. asteroides) of over 100 µg/mL and an MIC (E. coli A20683) of over 100 µg/mL. It also gave an MIC (C. krusei #96 A15052) of 3.1 µg/mL.
For Cc1c(N)nc([C@H](CC(N)=O)NC[C@H](N)C(N)=O)nc1C(=O)N[C@H](C(=O)N[C@H](C)[C@@H](O)CC(=O)N[C@H](C(=O)NC(O[C@@H]1O[C@@H](C)[C@@H](N)[C@@H](O)[C@H]1O)C(O)c1nc(-c2nc(C(=O)NCCCC(N)CC(=O)NCCCNCCCCN)cs2)cs1)[C@@H](C)O)[C@H](O[C@@H]1O[C@@H](CO)[C@@H](O)[C@H](O)[C@@H]1O[C@H]1O[C@H](CO)[C@@H](O)[C@H](OC(N)=O)[C@@H]1O)c1c[nH]cn1 (stereo partly shown) [Bu-2231 A Cu-free], the MIC (S. cerevisiae ATCC 9763) was 0.4 µg/mL (≈ 0.231 µM), the MIC (Verticillium sp.) was 3.1 µg/mL (≈ 1.79 µM) and the MIC (P. aeruginosa A 9923) was 50 µg/mL (≈ 28.9 µM). For the same compound, the MIC (Mycobacterium 607, D47) was 0.1 µg/mL (≈ 0.0577 µM), the MIC (P morganii A9553) was 0.4 µg/mL (≈ 0.231 µM) and the MIC (S. marcescens A20460) was 0.4 µg/mL (≈ 0.231 µM). The MIC (E. cloacae A21006) was 1.6 µg/mL (≈ 0.924 µM), the MIC (P. vulgaris A9436) was 0.2 µg/mL (≈ 0.115 µM) and the MIC (E. coli A20665) was 0.05 µg/mL (≈ 0.0289 µM). It also gave an MIC (P. stuartii A20734) of 0.4 µg/mL (≈ 0.231 µM), an MIC (E. coli A20732) of 0.05 µg/mL (≈ 0.0289 µM) and an MIC (B. anthracis 115) of 0.05 µg/mL (≈ 0.0289 µM). It also gave an MIC (A. fumigatus IAM 2530) of 0.8 µg/mL (≈ 0.462 µM), an MIC (S. marcescens A20019) of 0.4 µg/mL (≈ 0.231 µM) and an MIC (C. neoformans IAM 4514) of 0.4 µg/mL (≈ 0.231 µM). The MIC (S. aureus 209P) was 0.1 µg/mL (≈ 0.0577 µM), the MIC (C. neoformans (Cn-1)) was 0.4 µg/mL (≈ 0.231 µM) and the MIC (K. pneumoniae A20680) was 6.3 µg/mL (≈ 3.64 µM). It also gave an MIC (A. niger var Tieghem) of 0.2 µg/mL (≈ 0.115 µM), an MIC (Sporotrichum sp.) of 3.1 µg/mL (≈ 1.79 µM) and an MIC [2] of 0.8 µg/mL (≈ 0.462 µM). The MIC (E. coli Juhl A15119) was 0.1 µg/mL (≈ 0.0577 µM), the MIC (S. lutea PCI-1001) was 0.2 µg/mL (≈ 0.115 µM) and the MIC (P. rettgeri A15167) was 0.4 µg/mL (≈ 0.231 µM). The MIC (E. coli K-12 A9632) was 0.05 µg/mL (≈ 0.0289 µM), the MIC (S. cerevisiae IAM 4009) was 0.4 µg/mL (≈ 0.231 µM) and the MIC (T. asteroides) was 3.1 µg/mL (≈ 1.79 µM). For the same compound, the MIC (E. coli A20683) was 6.3 µg/mL (≈ 3.64 µM), the MIC (C. krusei #96 A15052) was 0.8 µg/mL (≈ 0.462 µM) and the LD50 [3] was 28 mg/kg.
